Laboratory results as given in US20230077584A1, “METHODS AND COMPOSITIONS FOR MODULATING ENTEROENDOCRINE CELLS” (Flagship Pioneering Innovations VI, LLC, priority 2021, published 2023).

Columns and labels:
[1] = test system: mouse intestinal organoids; test: mouse small intestinal organoid differentiation, lineage markers by Q-PCR; assay type: cell-based; conditions: ENR media, Q-PCR after 5 days of treatment, FIG. 2
Text: Cryopreserved mouse intestinal organoids derived from small intestine were obtained from Stem Cell Technologies. The organoids were thawed and propagated in Intesticult Growth Medium (Mouse) (purchased from Stem Cell Technologies) following the company's instructions. Briefly, ˜100 organoid fragments/well are embedded in Matrigel domes in 24-well plates and growth media is renewed every 2-3 days. The organoids are passaged every 5-6 days in 1:4 ratio. To assess the potential of the predicted perturbations to induce the enteroendocrine cell lineage during organoid differentiation, we established an in vitro assay to induce the various intestinal lineages (enterocytes, goblet cells, Paneth cells, enteroendocrine cells) based on published data (Yin et al, Nat Methods. 2014 January; 11(1):106-12). Briefly, organoid fragments are embedded in Matrigel and grow in custom-made media in the presence of EGF, Noggin, Rspondin (ENR) supplemented with the indicated factors (Table 4) that are known to induce markers of the various intestinal lineages. The expression of markers and the induction of the various cell lineages was assessed by Q-PCRs after 5 days of treatments (FIG. 2). Further characterization of the organoids will be performed by immunofluorescence staining and flow cytometry. […]

[2] = test system: mouse intestinal organoids; conditions: ENR media supplemented with factor; based on published data (Yin et al); cited from earlier work

C[C@H](NC(=O)Cc1cc(F)cc(F)c1)C(=O)N[C@H](C(=O)OC(C)(C)C)c1ccccc1 [DAPT]
expression of chromogranin A and chromogranin B genes, markers of enteroendocrine cells [1]: induces the expression of chromogranin A and chromogranin B genes
Cell lineage (factors known to induce markers of intestinal lineages) [2]: Enteroendocrine Cells, Paneth

Cc1ccc2nc(NC(=O)CSc3nc4c(c(=O)n3-c3ccccc3)SCC4)sc2c1 [IWP2]
Cell lineage (factors known to induce markers of intestinal lineages) [2]: Enterocytes, Enteroendocrine Cells
